Measurements as given in patent publication US20250241838A1, “COSMETIC COMPOSITION FOR WITH ANTI-GLYCATION EFFECT FOR ENHANCING SKIN RESISTANCE TO AGING” (L'OREAL, priority 2024, published 2025).
“Also recorded” adds a separate entry of the source. Where two headings read alike, the source gives them in different places.

Tested on: BSA (bovine serum albumin)
Experiment: In vitro/in tubo glycation study: BSA + D-ribose, fluorescence intensity
Format: biochemical
Description: A study was conducted in vitro/in tubo to evaluate if the ingredients of the inventive composition have anti-glycation effects in an in tubo environment.
The in tubo experiments were conducted to evaluate glycation of BSA (bovine serum albumin) under control conditions and with exposure to an embodiment of the inventive composition. Samples were prepared, including inventives, comparatives, baseline, and positive and negative controls.
A test plate was prepared with discrete wells for receiving each of the test compositions. Solutions representing the active ingredient concentrations listed under “Ingredient” in Table 3, below, were added to a well containing BSA+D-ribose (the Indicator Solution) and PBS. The total amount of Test Solutions added for the inventive compositions was always the same for all tests-25 microliters-5 microliters of each Test Solution (Ingredient) per well. PBS was used as the solvent for the Test Solution. Plates were prepared in triplicate.
Tested Compositions: Blank: PBS+BSA, Negative control: PBS+BSA+D-ribose, Positive control: PBS+BSA+D-ribose+Aminoguanidine, Five Inventive […]
Samples were plated in triplicate and readings taken at the indicated wavelength at day 1 and day 14.
Evaluations of Fluorescent Intensity were made at ex 370 nm/em 440 nm
Samples were evaluated at time intervals of 0 days, 3 days, 14 Days, 21 Days. The main purpose of incorporating time intervals is to provide sufficient duration for capturing the anti-glycation effect. It is crucial to build in multiple time points to adequately capture the anti-glycation effects since they can vary depending on the specific ingredients used.
Magnitude of fluorescence intensity is positively indicative of extent of glycation. Glycation is expected to be maximal with negative control (BSA plus D-ribose), while glycation of positive control with known antiglycation agent, Aminoguanidine, is expected to be reduced relative to negative control.
Evaluation of anti-glycation effect of individual ingredients: each of Activated C, Dandelion Extract, Caffeine, Lavender Oil, and Vitamin E (5 microliter quantities) were plated with 245 microliter of [PBS+BSA+D-ribose]. Concentrations of each ingredient added to the wells were as follows Activated C (100%, 50%, 10%, 5% and 1%), Dandelion Extract (100%, 50%, 30%, 15% and 3%), Caffeine (2%, 1.5%, 1%, 0.5% and 0.1%), Lavender Oil (100%, 50%, 0.15%, 0.08% and 0.15%), and Vitamin E (100%, 50%, 1%, 0.5% and 0.1%).

[1] = each ingredient alone, 5 microliter plated with 245 microliter PBS+BSA+D-ribose, five concentrations each, data not shown

**Q.** With CCOC1=C(O)C(=O)O[C@@H]1[C@@H](O)CO [Activated C, 3-O-ETHYL ASCORBIC ACID] as the molecule, how does the “anti-glycation effect of individual ingredients” value (shortened to “anti-glycation effect”) [1] read?
**A.** glycation effect only at high levels

**Q.** And the “anti-glycation effect” value (each ingredient alone, 5 microliter plated with 245 microliter PBS+BSA+D-ribose, five concentrations each, data not shown, listed as Ascorbic acid)?
**A.** reduction of glycation at high doses only

**Q.** For Cn1c(=O)c2c(ncn2C)n(C)c1=O [Caffeine], which “anti-glycation effect” value is on record?
**A.** no glycation effect; also recorded: no significant reduction in glycation

**Q.** What does the source list for N=C(N)NN [Positive control, Aminoguanidine]?
**A.** Fluorescence intensity (day 14 readings, ex 370 nm/em 440 nm, PBS+BSA+D-ribose, intensity positively indicative of extent of glycation): 2.921; Percent reduction in glycation (%) (day 14 readings, relative to negative control (PBS+BSA+D-ribose)): 23%

**Q.** tocopherol [Vitamin E] was tested. Which “anti-glycation effect” value [1] did it give?
**A.** no glycation effect

**Q.** And the “anti-glycation effect” value (each ingredient alone, 5 microliter plated with 245 microliter PBS+BSA+D-ribose, five concentrations each, data not shown, listed as vitamin E)?
**A.** no significant reduction in glycation
